Data as given in paper PMC10788917 (Journal of Medicinal Chemistry, 2023).

What was measured:
[1] = tested on: GSH (glutathione); test: physchem; settings: pH 7.4
Description: The AUC (area under the curve) values were determined via integration of HPLC or MS chromatograms and then corrected with the internal standard. The fragments’ AUC values were subjected to ordinary least-squares (OLS) linear regression, and to compute the important parameters (kinetic rate constant and half-life time), an Excel sheet was applied. The data are expressed as means of duplicate determinations. The kinetic rate constant for the degradation and corrected GSH reactivity were calculated as follows. The reaction half-life for pseudo-first-order reactions (t1/2) is ln 2/k, where k is the reaction rate. In the case of competing reactions (reaction with GSH and degradation), the apparent reaction rate is kapp = kdeg + kGSH. When half-lives are measured experimentally, t1/2(app) = ln 2/(kapp) = ln 2/(kdeg + kGSH). In our case, the corrected kdeg and kapp (regarding blank and GSH-containing samples, respectively) can be calculated by linear regression of the measured kinetic data points. The corrected kGSH is calculated as kapp – kdeg, and finally, the half-life is determined using the equation t1/2 = ln 2/k.

[2] = molecular target: HDAC8 WT (Homo sapiens, UniProt Q9BY41); test: Dilution/dialysis reversibility experiment; format: biochemical; settings: 2000-fold dilution by overnight dialysis
[3] = molecular target: T1, HDAC8 (Homo sapiens, UniProt Q9BY41); test: Kinetic parameters of inactivation from time-dependent IC50; format: biochemical; settings: HDAC8, inactivation constant
T1 construct: one additional N-terminal residue 'H' (His) (N)
T1 sequence (Q9BY41 1-377): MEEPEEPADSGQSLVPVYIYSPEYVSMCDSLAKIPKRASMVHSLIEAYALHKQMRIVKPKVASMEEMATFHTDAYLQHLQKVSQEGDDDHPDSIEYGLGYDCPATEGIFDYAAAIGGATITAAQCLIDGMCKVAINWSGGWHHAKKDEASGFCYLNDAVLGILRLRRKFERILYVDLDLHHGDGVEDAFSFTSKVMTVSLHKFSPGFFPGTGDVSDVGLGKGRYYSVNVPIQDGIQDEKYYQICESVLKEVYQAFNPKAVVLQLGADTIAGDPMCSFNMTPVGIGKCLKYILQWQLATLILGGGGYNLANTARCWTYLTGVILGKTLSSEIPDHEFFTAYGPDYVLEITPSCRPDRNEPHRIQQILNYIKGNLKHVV
Description: Time-dependent IC50 values were obtained using the previously described enzyme activity assay after varying preincubation times.

[4] = tested on: SMC3 acetylation; test: Western blot (immunoblot) in OCI-AML3 cells; format: cell-based; settings: 72 h treatment
Description: Cells (2 ×10^6) were seeded in 2 mL of medium in a six-well plate (Greiner) and treated with the desired concentration of the compounds. […] Protein concentrations were determined by the Bradford protein assay. Thirty micrograms of cell lysates per treatment was fractionated on sodium dodecyl sulfate–polyacrylamide gels and transferred to nitrocellulose membranes (Cytiva).

[5] = tested on: HL60 cells; test: CellTiter-Blue cell viability assay; format: cell-based; settings: Homo sapiens, HL-60; 72 h, Figure 7A
Description: (§1) All cell lines were purchased from DSMZ (Braunschweig, Germany). The cell lines were regularly tested to exclude mycoplasma contamination and authenticated. Cell lines were grown at 37 °C and 5% CO2 in RPMI 1640 medium (Gibco, Thermo Fisher Scientific). Media were supplemented with 10% fetal calf serum (FCS), 10 units/mL penicillin, 10 μg/mL streptomycin, and 2 mM L-glutamine (all Gibco, Thermo Fisher Scientific).
(§2) To determine the IC50 of the selected compounds on the cell lines, the CellTiter-Blue cell viability assay (Promega) was performed. For this, cells were seeded in 96-well flat-bottom plates at a cell density of 10 000 cells/well. Cells were treated in triplicate with the compound of interest at various concentrations or with 10 μM Bortezomib (S1013; Selleck Chemicals, Houston, TX), as a positive control. The cell viability of treated cell lines was measured using CellTiter-Blue after incubation for 72 h. Plates were measured using a GloMax plate reader (Promega), and IC50 values were determined by nonlinear regression using GraphPad Prism version 9.1.1 (GraphPad Software, Inc.), and the data are reported as mean values ± the standard error of the mean.

[6] = tested on: THP-1 cells; test: CellTiter-Blue cell viability assay; format: cell-based; settings: Homo sapiens, 72 h, Figure 7A, read-out: cell viability IC50, THP-1
Description: as §1, with “Cell lines were grown at 37 °C and 5% CO2 in RPMI 1640 medium (Gibco, Thermo Fisher Scientific).” left out
as §2, with “The cell viability of treated cell lines was measured using CellTiter-Blue after incubation for 72 h.” left out

[7] = PBS buffer with 5 mM glutathione (GSH)

half-life at 250 μM [1, 7]	SMILES	other results
> 2880 min	Ic1ccn[nH]1 [K3]	–
> 2880 min	Clc1ncc[nH]1 [H1]	–
9.6 min	Ic1ncc[nH]1 [H3]	–
> 2880 min	Brc1ncc[nH]1 [H2]	–
> 2880 min	Ic1c[nH]cn1 [J3]	–
13.8 min	Ic1ncco1 [N3]	–
> 2880 min	Ic1cn[nH]c1 [L3]	–

Continued, compound first:

SMILES	half-life at 250 μM [1, 7]	other results
N#Cc1ccccn1 [A4]	–	half-life at 250 μM ([1]; buffer): > 2880 min
Brc1ccn[nH]1 [K2]	> 2880 min	–
Clc1cn[nH]c1 [L1]	> 2880 min	–
Cn1cc[n+](C)c1C#N [H4+]	–	half-life at 250 μM ([1]; buffer): > 2880 min
C#Cc1ccc[n+](C)c1 [B6+]	–	reversibility of covalent binding [2]: irreversible; Ki [3]: 800 nM; effect on HDAC8 levels [4]: not influencing HDAC8 levels
Brc1c[nH]cn1 [J2]	> 2880 min	–
Clc1c[nH]cn1 [J1]	> 2880 min	–
Brc1nccs1 [R2]	> 2880 min	–
Brc1cn[nH]c1 [L2]	> 2880 min	–
C#Cc1cnccc1NC(=O)CC(=O)N1Cc2ccccc2C1 [compound 11, N-(3-Ethynylpyridin-4-yl)-3-(isoindolin-2-yl)-3-oxopropanamide]	–	IC50 [5]: > 500 µM; IC50 [6]: > 500 µM
Brc1cncs1 [Q2]	> 2880 min	–
